# Reference: PMC6155913, “Reaction of 3-Amino-1,2,4-Triazole with Diethyl Phosphite and Triethyl Orthoformate: Acid-Base Properties and Antiosteoporotic Activities of the Products” (Molecules : A Journal of Synthetic Chemistry and Natural …, 2017)
# Where two headings read alike, the source gives them in different places.
# Columns and labels:
# [1] = cited from earlier work
# [2] = Protonation constants by potentiometric titration; format: physicochemical; details: Potentiometry, 0.1 M KCl, 25 °C, [L] = 1 × 10^−3 M, error 1σ
# Experimental: (§1) The acid-base properties of compounds 1 and 2 were determined to understand their behaviour in aqueous solutions. These studies were performed using potentiometry prompted by pH-UV titration studies and, for compound 1, pH*-NMR titration studies (pH* = pH uncorrected for the isotopic effect).
# The titration studies of the compounds were carried out in double-distilled water using a Metrohm 809 Titrando system equipped with a combined glass electrode (Metrohm 6.0224.100) which was calibrated daily for hydrogen concentration using HCl (Merck, Warsow, Poland) (0.004 M) according to the procedure of Irving et al.. The ionic strength was fixed at I = 0.1 M with KCl (POCh). Alkali, CO2-free 0.1017 M KOH solution (POCh) was standardized by titration with potassium hydrogen phthalate (Merck). The ionic product of water under the experimental conditions was 10^−13.77 mol^2·dm^−6. The purity and exact concentration of each ligand were determined by the method of Gran. The titrations were carried out on 2.0 mL samples in a thermostatted cell at 25 ± 0.2 °C under a stream of Ar. The HYPERQUAD2013 computer program was applied to calculate the protonation constants. Triplicate titrations of each ligand (177–222 points) in a concentration of 1.0 × 10^−3 mol·dm^−3 were performed and used for the calculations. The distribution curves of the protonated species of the compounds (marked as L) as a function of pH were calculated using the HySS2009 program.
# [3] = Protonation constants by pH-UV (UV-Vis) titration; format: physicochemical; details: 0.1 M KCl, 25 °C, [L] = 7 × 10^−5 M, error 1σ
# Experimental: as §1
# The results of the potentiometric studies are supported by spectroscopic determination of the pK values of the studied compounds. The results, obtained from electronic spectra generated in the HypSpec program for the detected species, are presented in Table 2 and Figure S1. […] For compound 1, the band at approximately 215 nm was already present under a very acidic pH value (pH 1.57) (Figure 4). This band is assigned to the protonated 1,2,4-triazole. The band underwent a bathochromic shift to 230 nm when the pH rises, which is assigned to the H4L → H3L^− + H^+ deprotonation process at a pK4 of 4.22 or 4.16 (estimated potentiometrically or spectrophotometrically, respectively). This was the biggest change in absorption for the spectroscopic determination by UV spectrophotometry. This change was the reason for assigning the pK4 value to the deprotonation of 1,2,4-triazole. Adequate changes occur for the spectra of compound 2. […] Generally, spectroscopic titrations (see Figure S23 Supplementary Materials) are in a good agreement with potentiometric titrations and provide similar pK values.
# Absorption spectra for the compounds were collected using a Varian Cary 50 spectrophotometer (Varian, Mulgrave, Victoria, Australia) in Quartz Hellma curvets with a 1 cm optical path. The solutions were prepared by dissolving the appropriate concentration of ligands ([L] = 7 × 10^−5 mol·dm^−3) in 0.004 M HCl with 0.1 M ionic strength (KCl). The background electrolyte was used as a baseline reference. Solution pH was changed manually by adding small amounts of concentrated potassium hydroxide and checked the pH using the 913 Metrohm pH meter equipped with a combined glass electrode (Metrohm 6.0224.100, Herisau, Switzerland). The protonation constants and spectral deconvolution were refined using the least squares fitting program HypSpec. Factor analysis by the HypSpec software (http://www.hyperquad.co.uk/) was implemented to characterize the number of species present in the solution.
# [4] = tested on: mouse macrophage-like J774E cells; assay: Antiproliferative activity, MTT assay; format: cell-based; details: J774E macrophages, 72 h exposure
# Experimental: To screen for potential antiosteoporotic activity of the bisphosphonates, their antiproliferative activity towards in vitro cell cultures was determined. J774E macrophages and osteoclasts are both derived from haematopoietic lineage and are highly endocytic and capable of demineralizing bone particles. Therefore, they are models for studies on the influence of bisphosphonates on the proliferation and activity of […]. For this purpose, mouse macrophage-like J774E cells, originating from the same precursors as the osteoclasts, were used. Such cells are well recognized for being sensitive to bisphosphonates, which likely act by inducing apoptosis in the cells. The J744E cell line was obtained from a cell bank at the Ludwik Hirszfeld Institute of Immunology and Experimental Therapy, Polish Academy of Sciences.
# This experiment was performed according to a previously published procedure. To use the cell line, it is necessary to first thaw the cells using a water bath at 37 °C and gentle stirring. The cells were placed into the culture medium. This line was passaged 2 times a week in RPMI (growth medium consisting of 10% FBS, 100 μg/mL streptomycin, 100 U/mL penicillin and 2 mM glutamine) in Petri dishes. The cell growth was monitored under a microscope, and part of the material was used in the next stage of the experiment. Then, the cells were separated from the bottom (the surface proteins present on the plasma membrane allowing adhesion were destroyed) and were collected from the culture vessel. Then, in a Bürker chamber, the cell density was counted using a drop of cell suspension in a mixture ratio of 1:1 with trypan blue.
# Then, a 96-well microtiter plate assay was performed with 100 μL of cells (5 × 10^4/mL) in a cultivation solution followed, after 24 h, by the addition of 100 μL of a solution of the tested compound (10^−3, 10^−4, 10^−5, or 10^−6 M) in the same medium. Plates were incubated at 37 °C in a humidified atmosphere saturated with 5% CO2. The in vitro cytotoxicities of all agents were examined by colorimetric MTT assay after 72 h of exposure of the cultured cells to varying concentrations of the tested compounds [32]. Briefly, 20 μL of the MTT solution (MTT: 3-(4,5-dimethylthiazol-2-yl)-2,5-diphenyl tetrazolium bromide) was added to each well and incubated for 4 h. After the incubation period was completed, 80 μL of the lysing mixture was added to each well (lysing mixture: 225 mL dimethylformamide, 67.5 g sodium dodecyl sulfate and 275 mL of distilled water). The optical densities of the samples were determined after 24 h using a Multiskan RC photometer (Labsystems, Helsinki, Finland) at 570 nm.
compound,measurement,setting,value
"c1c[nH]nn1 [1,2,3-triazole]",pK of triazole,[1]; unsubstituted triazole,9.26
"c1nc[nH]n1 [1,2,4-triazole]",pK of triazole,[1]; unsubstituted triazole,9.95
"OCCCn1cc(-c2ccccn2)nn1 [3-(4-(pyridine-2-yl)-1H-1,2,3-triazol-1-yl-propan-1-ol]",pK of triazole,"[1]; 1,2,3-triazole-pyridines, previously reported",3.40
"Nc1nc[nH]n1 [3-amino-1,2,4-triazole]",pK of triazole,"[1]; substituted triazole, previously reported",4.20
"O=P(O)(O)C(Nc1nc[nH]n1)P(=O)(O)O [Compound 1, 1,2,4-Triazolyl-3-yl-Aminomethylenebisphosphonic Acid]",pK1(HL) amine,[2],11.52(3)
same,pK2(H2L) phosphonate,[2],9.62(3)
same,pK3(H3L) phosphonate,[2],6.54(4)
same,pK5(H5L) phosphonate,[2],1.48(4)
same,pK2(H2L) phosphonate,[2]; listed as compound 1,9.62
same,pK3(H3L) phosphonate,[2]; listed as compound 1,6.54
same,pK4(H4L) triazole,[2]; listed as compound 1,4.22
same,pK5(H5L) phosphonate,[2]; listed as compound 1,1.48
same,pK1(HL) amine,[3],11.68(2)
same,pK2(H2L) phosphonate,[3],9.32(5)
same,pK3(H3L) phosphonate,[3],6.15(6)
same,pK4(H4L) triazole,[3],4.16(6)
same,pK5(H5L) phosphonate,[3],0.67(6)
same,pK4(H4L) triazole,[3]; listed as compound 1,4.16
same,IC50,[4],25 µM
same,IC50,"[4]; Mus musculus, Macrophage, 72 h",24.9 ± 5.17 µM
CCn1cnc(NC(P(=O)(O)O)P(=O)(O)O)n1 [Compound 2],pK1(HL) amine,[2],10.81(1)
same,pK2(H2L) phosphonate,[2],9.43(1)
same,pK3(H3L) phosphonate,[2],6.73(1)
same,pK5(H5L) phosphonate,[2],1.69(1)
same,pK2(H2L) phosphonate,[3],9.56(2)
same,pK3(H3L) phosphonate,[3],5.90(2)
same,pK4(H4L) triazole,[3],3.32(2)
same,pK4(H4L) triazole,[3]; listed as compound 2,3.32
same,IC50,"[4]; Mus musculus, Macrophage, 72 h",30.6 ± 4.64 µM
"O=P(O)(O)C(NC1CCCCCC1)P(=O)(O)O [incadronic acid, reference compound]",IC50,"[4]; Mus musculus, Macrophage, 72 h",47.9 ± 1.39 µM
"O=P(O)(O)C(O)(Cn1ccnc1)P(=O)(O)O [zoledronic acid, reference compound]",IC50,"[4]; Mus musculus, Macrophage, 72 h",24.5 ± 2.23 µM
